From the supplement of paper PMC10307832

Legend:
Assay in all cases: relative viability (nuclei count vs DMSO), 5 days (fraction); higher = more cells survive
[1] = tested on: NCI-H358
In short: (§1)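 Relative viability was taken as the ratio of nuclei in treated wells to nuclei in vehicle wells. Lung cancer cell lines in 1536-well plates received compounds by pin tool one day after seeding, either one drug alone or a fixed anchor-drug dose plus five library-drug doses (not always all listed) in √10 steps. Nuclei were counted on 4× images after 5 days of treatment, and values are medians of duplicate plates.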

[2] = tested on: EPLC-272H
In short: as §1

[3] = tested on: UMC-11
In short: as §1

[4] = tested on: NCI-H1792
In short: as §1

[5] = tested on: NCI-H1915
In short: as §1

[6] = tested on: HCC-366
In short: as §1

[7] = tested on: LXF-289
In short: as §1

[8] = tested on: LC-2-ad
In short: as §1

[9] = tested on: SW 900
In short: as §1

[10] = tested on: SK-LU-1
In short: as §1

[11] = tested on: HOP-62
In short: as §1

[12] = tested on: HCC-78
In short: as §1

[13] = tested on: NCI-H1666
In short: as §1

[14] = tested on: NCI-H2170
In short: as §1

[15] = tested on: LU99A
In short: as §1

[16] = tested on: NCI-H1793
In short: as §1

[17] = tested on: A-427
In short: as §1

[18] = tested on: NCI-H2009
In short: as §1

[19] = tested on: NCI-H1944
In short: as §1

[20] = tested on: COR-L 105
In short: as §1

[21] = tested on: NCI-H2085
In short: as §1

[22] = tested on: NCI-H460
In short: as §1

CC(=O)O[C@@]12CO[C@@H]1C[C@H](O)[C@@]1(C)C(=O)[C@H](O)C3=C(C)[C@@H](OC(=O)[C@H](O)[C@@H](NC(=O)OC(C)(C)C)c4ccccc4)C[C@@](O)([C@@H](OC(=O)c4ccccc4)[C@H]21)C3(C)C [Docetaxel] + CC(=O)Nc1cccc(-n2c(=O)n(C3CC3)c(=O)c3c(Nc4ccc(I)cc4F)n(C)c(=O)c(C)c32)c1 [Trametinib] (partner 0.02 µM)
relative viability ([1]; first compound 0.0002 µM): 0.167 | relative viability ([1]; first compound 0.000632 µM): 0.138 | relative viability ([1]; first compound 0.002 µM): 0.124 | relative viability ([1]; first compound 0.006325 µM): 0.0884 | relative viability ([1]; first compound 0.02 µM): 0.083 | relative viability ([2]; first compound 0.0002 µM): 0.32 | relative viability ([2]; first compound 0.000632 µM): 0.276 | relative viability ([2]; first compound 0.006325 µM): 0.136 | relative viability ([2]; first compound 0.02 µM): 0.0951 | relative viability ([3]; first compound 0.0002 µM): 0.62 | relative viability ([3]; first compound 0.000632 µM): 0.788 | relative viability ([3]; first compound 0.002 µM): 0.358 | relative viability ([3]; first compound 0.006325 µM): 0.216 | relative viability ([3]; first compound 0.02 µM): 0.147 | relative viability ([4]; first compound 0.0002 µM): 0.377 | relative viability ([4]; first compound 0.000632 µM): 0.338 | relative viability ([4]; first compound 0.002 µM): 0.31 | relative viability ([4]; first compound 0.006325 µM): 0.142 | relative viability ([4]; first compound 0.02 µM): 0.0842 | relative viability ([5]; first compound 0.0002 µM): 0.3 | relative viability ([5]; first compound 0.000632 µM): 0.288 | relative viability ([5]; first compound 0.002 µM): 0.228 | relative viability ([5]; first compound 0.006325 µM): 0.151 | relative viability ([5]; first compound 0.02 µM): 0.0803 | relative viability ([6]; first compound 0.0002 µM): 0.303 | relative viability ([6]; first compound 0.000632 µM): 0.102 | relative viability ([6]; first compound 0.002 µM): 0.0555 | relative viability ([6]; first compound 0.006325 µM): 0.0799 | relative viability ([6]; first compound 0.02 µM): 0.0179 | relative viability ([7]; first compound 0.0002 µM): 0.648 | relative viability ([7]; first compound 0.000632 µM): 0.673 | relative viability ([7]; first compound 0.002 µM): 0.335 | relative viability ([7]; first compound 0.006325 µM): 0.18 | relative viability ([7]; first compound 0.02 µM): 0.109 | relative viability ([8]; first compound 0.0002 µM): 0.886 | relative viability ([8]; first compound 0.000632 µM): 0.737 | relative viability ([8]; first compound 0.002 µM): 0.345 | relative viability ([8]; first compound 0.006325 µM): 0.297 | relative viability ([8]; first compound 0.02 µM): 0.226 | relative viability ([9]; first compound 0.0002 µM): 0.802 | relative viability ([9]; first compound 0.000632 µM): 0.287 | relative viability ([9]; first compound 0.002 µM): 0.232 | relative viability ([9]; first compound 0.02 µM): 0.163 | relative viability ([10]; first compound 0.0002 µM): 0.518 | relative viability ([10]; first compound 0.000632 µM): 0.468 | relative viability ([10]; first compound 0.002 µM): 0.411 | relative viability ([10]; first compound 0.006325 µM): 0.281 | relative viability ([10]; first compound 0.02 µM): 0.223 | relative viability ([11]; first compound 0.0002 µM): 0.328 | relative viability ([11]; first compound 0.000632 µM): 0.446 | relative viability ([11]; first compound 0.002 µM): 0.355 | relative viability ([11]; first compound 0.006325 µM): 0.32 | relative viability ([12]; first compound 0.0002 µM): 0.751 | relative viability ([12]; first compound 0.000632 µM): 0.73 | relative viability ([12]; first compound 0.002 µM): 0.502 | relative viability ([12]; first compound 0.006325 µM): 0.446 | relative viability ([12]; first compound 0.02 µM): 0.371 | relative viability ([13]; first compound 0.0002 µM): 0.846 | relative viability ([13]; first compound 0.000632 µM): 0.695 | relative viability ([13]; first compound 0.002 µM): 0.645 | relative viability ([13]; first compound 0.006325 µM): 0.771 | relative viability ([13]; first compound 0.02 µM): 0.521 | relative viability ([14]; first compound 0.0002 µM): 0.887 | relative viability ([14]; first compound 0.000632 µM): 0.848 | relative viability ([14]; first compound 0.002 µM): 0.746 | relative viability ([14]; first compound 0.006325 µM): 0.222 | relative viability ([14]; first compound 0.02 µM): 0.167 | relative viability ([15]; first compound 0.0002 µM): 0.53 | relative viability ([15]; first compound 0.000632 µM): 0.561 | relative viability ([15]; first compound 0.002 µM): 0.346 | relative viability ([15]; first compound 0.006325 µM): 0.3 | relative viability ([16]; first compound 0.0002 µM): 0.378 | relative viability ([16]; first compound 0.000632 µM): 0.433 | relative viability ([16]; first compound 0.002 µM): 0.384 | relative viability ([16]; first compound 0.006325 µM): 0.316 | relative viability ([16]; first compound 0.02 µM): 0.272 | relative viability ([17]; first compound 0.0002 µM): 0.765 | relative viability ([17]; first compound 0.000632 µM): 0.775 | relative viability ([17]; first compound 0.002 µM): 0.552 | relative viability ([17]; first compound 0.006325 µM): 0.388 | relative viability ([17]; first compound 0.02 µM): 0.216 | relative viability ([18]; first compound 0.0002 µM): 0.273 | relative viability ([18]; first compound 0.000632 µM): 0.312 | relative viability ([18]; first compound 0.002 µM): 0.295 | relative viability ([18]; first compound 0.006325 µM): 0.233 | relative viability ([18]; first compound 0.02 µM): 0.175 | relative viability ([19]; first compound 0.0002 µM): 0.387 | relative viability ([19]; first compound 0.000632 µM): 0.371 | relative viability ([19]; first compound 0.002 µM): 0.294 | relative viability ([19]; first compound 0.006325 µM): 0.241 | relative viability ([19]; first compound 0.02 µM): 0.118 | relative viability ([20]; first compound 0.0002 µM): 0.399 | relative viability ([20]; first compound 0.000632 µM): 0.445 | relative viability ([20]; first compound 0.002 µM): 0.428 | relative viability ([20]; first compound 0.006325 µM): 0.339 | relative viability ([20]; first compound 0.02 µM): 0.392 | relative viability ([21]; first compound 0.0002 µM): 0.503 | relative viability ([21]; first compound 0.000632 µM): 0.513 | relative viability ([21]; first compound 0.002 µM): 0.324 | relative viability ([21]; first compound 0.006325 µM): 0.329 | relative viability ([21]; first compound 0.02 µM): 0.199 | relative viability ([22]; first compound 0.0002 µM): 0.103 | relative viability ([22]; first compound 0.000632 µM): 0.0804 | relative viability ([22]; first compound 0.002 µM): 0.0715 | relative viability ([22]; first compound 0.006325 µM): 0.0192 | relative viability ([22]; first compound 0.02 µM): 0.0118
